Measured values from US4117230A, “Hydantoin derivatives as therapeutic agents” (priority 1977, dated 1978).

What was measured:
aldose reductase = target: T1, aldose reductase (Bos taurus, UniProt P16116); assay: inhibition of aldose reductase enzyme activity (procedure of S. Hayman et al., modified by K. Sestanj et al.); format: biochemical, calf; details: for inhibition at 100 µM: 10^-4 M; for inhibition at 100 µM / inhibition at 10 µM / inhibition at 1 µM / inhibition at 0.1 µM: calf lens enzyme, read-out: Percent inhibition of aldose reductase enzyme activity; for inhibition at 10 µM: 10^-5 M; for inhibition at 1 µM: 10^-6 M; for inhibition at 0.1 µM: 10^-7 M; for aldose reductase inhibitory activity (in words): qualitative statement
T1 construct: partially purified aldose reductose enzyme obtained from calf lens; from tissue; host or cells: calf lens
Experimental: (§1) The activity of the compounds of the present invention, as agents for the control of chronic diabetic complications, is determined by their ability to successfully pass one or more of the following standard biological and/or pharmacological tests, viz., (1) measuring their ability to inhibit the enzyme activity of isolated aldose reductase; (2) measuring their ability to reduce or inhibit sorbitol accumulation in the sciatic nerve of acutely sterptozotocinized (i.e., diabetic) rats; (3) measuring their ability to reverse already-elevated sorbitol levels in the sciatic nerve and lens of chronic streptozotocin-induced diabetic rats; (4) measuring their ability to prevent or inhibit galactitol formation in the lens of acutely galactosemic rats, and (5) measuring their ability to delay cataract formation and reduce the severity of lens opacities in chronic galactosemic rats.
Hayman et al., as described in the Journal of Biological Chemistry, Vol. 240, p. […] In every case, the substrate employed ws partially purified aldose reductose enzyme obtained from calf lens.

[1] = test system: sorbitol accumulation in the sciatic nerve of streptozotocinized (i.e., diabetic) rats; assay: inhibition of sorbitol accumulation in the sciatic nerve of acutely streptozotocinized (diabetic) rats; format: in vivo, rat; details: measured at 27 h, vs untreated
Experimental: as §1
The following spiro-hydantoin compounds of Preparation C and Examples I-V, VII-IX, XI-XVII, XIX-XXV, XXVII and XXX-XXXIII, respectively, were tested for their ability to reduce or inhibit sorbitol accumulation in the sciatic nerve of streptozotocinized (i.e., diabetic) rats by the procedure essentially described in U.S. Pat. No. 3,821,383. In the present study, the amount of sorbitol accumulation in the sciatic nerves was measured 27 hours after induction of diabetes. The compounds were administered orally at the dose levels indicated at 4, 8 nd 24 hours following the administration of streptozotocin. The results obtained in this manner are presented below in terms of percent inhibition (%) afforded by the test compound as compared to the case where no compound was administered (i.e., the untreated animal where sorbitol levels normally rise from approximately […]. tissue to as high as […]. tissue in the 27-hour test period): […]

[2] = test system: sorbitol levels in the sciatic nerve and lens of diabetic subjects; assay: lowering of sorbitol levels in sciatic nerve (peripheral nerves) and lens of diabetic subjects (summary statement); format: in vivo; details: qualitative statement
[3] = test system: galactitol levels in the lens of galactosemic subjects; assay: lowering of galactitol levels in the lens of galactosemic subjects (summary statement); format: in vivo; details: qualitative statement
[4] = 1.5 mg./kg. orally at 4, 8 and 24 h after streptozotocin
[5] = 5.0 mg./kg. orally at 4, 8 and 24 h after streptozotocin
[6] = 10 mg./kg. orally at 4, 8 and 24 h after streptozotocin
[7] = 0.75 mg./kg. orally at 4, 8 and 24 h after streptozotocin

| inhibition at 100 µM (aldose reductase) [%] | inhibition at 10 µM (aldose reductase) [%] | inhibition at 1 µM (aldose reductase) [%] | inhibition at 0.1 µM (aldose reductase) [%] | aldose reductase inhibitory activity (in words) (aldose reductase) | Compound | Percent inhibition of sorbitol accumulation in the sciatic nerve [1, 4] [%] | Percent inhibition of sorbitol accumulation in the sciatic nerve [1, 5] [%] | Percent inhibition of sorbitol accumulation in the sciatic nerve [1, 6] [%] | lowering of sorbitol levels in sciatic nerve (peripheral nerves) and lens (in words) [2] | lowering of galactitol levels in the lens (in words) [3] | Percent inhibition of sorbitol accumulation in the sciatic nerve [1, 7] [%] |
| --- | --- | --- | --- | --- | --- | --- | --- | --- | --- | --- | --- |
| 73 | 39 | 18 | -11 | highly potent | O=C1NC(=O)C2(CCc3ccccc32)N1 (stereo not drawn) [Ex. I, spiro-[imidazolidine-4,1'-indan]-2,5-dione] | 29 | 52 | 67 | extremely effective | extremely effective | – |
| 67 | 84 | 76 | 69 | highly potent | O=C1NC(=O)C2(CCSc3cc(Cl)c(Cl)cc32)N1 (stereo not drawn) [Ex. XI, 6',7'-dichloro-spiro-[imidazolidine-4,4'-thiochroman]-2,5-dione] | – | 59 | – | extremely effective | extremely effective | – |
| 59 | 96 | 91 | 84 | highly potent | O=C1NC(=O)C2(CCOc3cc(Cl)c(Cl)cc32)N1 (stereo not drawn) [Ex. XXIII, 6,7-dichloro-spiro-[chroman-4,4'-imidazolidine]-2',5'-dione] | 64 | – | – | extremely effective | extremely effective | – |
| 85 | 90 | 78 | 81 | highly potent | O=C1NC(=O)C2(CCOc3c(Cl)cc(Cl)cc32)N1 (stereo not drawn) [Ex. XXIV, 6,8-dichloro-spiro-[chroman-4,4'-imidazolidine]-2',5'-dione] | – | – | – | extremely effective | extremely effective | 82 |
| 73 | 81 | 77 | 64 | highly potent | O=C1NC(=O)C2(CCOc3ccc(Cl)cc32)N1 (stereo not drawn) [Ex. XXV, 6-chloro-spiro-[chroman-4,4'-imidazolidine]-2',5'-dione] | 84 | – | – | extremely effective | extremely effective | 64 |
| 81 | 64 | 22 | 4 | – | O=C1NC(=O)C2(CS(=O)(=O)c3ccccc32)N1 (stereo not drawn) [Ex. XXXIII, spiro-[imidazolidine-4,3'-thioindan]-2,5-dione-1,1'-dioxide] | – | 5 | – | – | – | – |
| 72 | 34 | 13 | 7 | – | O=C1NC(=O)C2(CCCc3ccccc32)N1 (stereo not drawn) [Prep. C, 3',4'-Dihydro-spiro-[imidazolidine-4,1'(2'H)-naphthalene]-2,5-dione, reference compound] | – | 3 | 40 | – | – | – |
